# Test results published in US9308244B2, “Combination therapy using active immunotherapy” (immatics Biotechnologies GmbH, priority 2007, dated 2016).
# “Also recorded” adds a separate entry of the source. Like-named read-outs stand apart in the source and are kept apart here.
# Tests used:
# [1] = tested on: CD4+ CD25+ Tregs, T cells, B cells, splenocytes; assay: Immune cell populations in spleen and PBMCs of TKI-treated mice; type: in vivo, C57BL/6 mice; conditions: 4 weeks treatment
# A498 and RCC068 = assay: Long-term culture of renal cell carcinoma cell lines in the presence of TKIs; type: cell-based, human; conditions: 13 μM sorafenib, 14 d time point, cells harvested after 10 days
# Procedure: The human renal cell carcinoma cell lines A498 and RCC068 were cultured in RPMI medium (5% FCS (Biochrom, Berlin, Germany), 5% HS (PromoCell, Heidelberg, Germany)). […] For each time point 3 flasks of each cell line were prepared by containing either 0.1% DMSO alone as a control, 13 μM sorafenib (8.3 μg/ml sorafenib tosylate)+0.1% DMSO, or 250 nM sunitinib (133 ng/ml sunitinib malate).
# A normal medium control sample containing neither DMSO nor TKIs was harvested at 1 h for each cell line.
# A498 tumor cells = conditions: A498, 24 h; 13 μM sorafenib or 250 nM sunitinib; normal medium control = 100%
# human CD8+ T-cells = assay: Artificial APC (pMHC/anti-CD28 bead) priming and expansion of isolated human CD8+ T-cells, MLA-001 tetramer readout; type: cell-based; conditions: three stimulation cycles, high and low density pMHC, absence of natural antigen presenting cells
# [2] = HPLC quantification of TKI plasma levels in mouse models; type: in vivo; conditions: oral dosing
# Procedure: The proteins were precipitated with 40 μl 100% acetonitril (Acros, Geel, Belgium), centrifuged and filtered through a 0.2 μm PVDF filter. 10 μl was directly injected to the HPLC system.
# The HPLC system consisted of a Binary HPLC pump (Shimadzu LC10aVP), a Shimadzu SIL-10aVP autosampler, a Shimadzu CTO-10asVP column oven and a Shimadzu SPD10aVP detector. Data acquisition and analysis was performed using the Shimadzu Class-VP 7.3 software. Chromatographic separation was carried out on a reverse phase C18 column (Reprosil Pur ODS-3μ, 60×2 mm). To protect the analytical column a guard column has been used (Reprosil Pur ODS-5μ, 10×2 mm). Eluent A consisted of water (LCMS grade, Acros, Geel, Belgium), modified by 0.1% formic acid (Merck, Darmstadt, Germany) and eluent B was 80% acetonitril (Acros, Geel, Belgium) with 0.1% formic acid (Merck, Darmstadt, Germany).
# The following gradient was used: 5 min 25% eluent B, 15 min 62.5% eluent B, 6 min 80% eluent B and 5 min 80% eluent B. The temperature of the autosampler was kept at 4° C. The temperature of the column was maintained at 30° C. The detection wavelength was set at 400 nm, the injection volume was 10 μl. The column was equilibrated with the mobile phase at a flow rate 0.5 ml/min.
# For Sorafenib analysis, 10 μl of 50% acetonitril (Acros, Geel, Belgium) was added to 50 serum or medium in 0.5 ml PCR tubes and mixed for 10 seconds. […]
# [3] = mouse, in vivo
# Procedure: Female C57BL/6 mice (20-25 g, Harlan Winkelmann GmbH, Borchen, Germany) were used for all experiments described in this section. Animals were kept in the animal facility of the Dept. of Immunology at the University of Tuebingen. Animals were cared for by trained animal keepers and health status of animals was supervised by the veterinaries of the University of Tübingen. Feeding with drug was also performed in part by the local animal keepers after special training. All animals were supplied with water and food ad libitum. The described experiments were performed according to procedure no. IM1/06 approved by the Regierungsprasidium Tuebingen.
# A liquid, viscous vehicle composed of 30% (w/v) Cremophor EL (Sigma, Deisenhofen, Germany), 30% (w/v) PEG 400 (Sigma, Deisenhofen, Germany), 10% ethanol p.a., 10% glucose was used. Sunitinib and sorafenib were suspended in vehicle according to the planned dosages in a way that […] body weight had to be applied to all mice, according to approx. 50 μl of suspension. Feasible aliquots were prepared from suspensions and from vehicle and stored until use at −20° C. in the dark. Thawed substance was stored at 4° C. and used within the next three days. Animals were weighed before start of treatment and thereafter weekly. The deduced dosage was applied daily using a 1 ml syringe with gavage into the backward cavity of the mouth of the animal without anesthesia. Drug delivery into blood plasma was controlled as described in example 1.
# 1) Immunization under continuous treatment with tyrosine kinase inhibitors. Pretreatment phase was two weeks (see FIG. 5A). […]
# 3) The experimental design was identical to a) Beside negative and positive control groups, groups treated with 60 mg/kg body weight sorafenib, and 20 and 40 mg/kg body weight sunitinib were included (6 mice per group). For spleen cells, CD4, Tregs, CD8 cells, and B cells were assessed, for PBMCs CD4, CD8, B cells and Tregs were analyzed.
# [4] = tested on: HLA-A*02+ PBMCs (CD4+ and CD8+ effector cells); conditions: absence of target cells or autologous target cells
# Procedure: Two fresh buffy coat (HLA-A*02+ and HLA-A*02−) were obtained from the Katharinenhospital Stuttgart. PBMCs were isolated by standard density gradient isolation and incubated overnight in T-cell medium (TCM) for human in vitro priming as in WP03 #4. Ca2+ and Mg2+ free PBS (Cambrex) washed HLA-A*02+ PBMCs were labeled at 1×10^7 cells/ml with 1 μM CFSE (Fluka, Buchs, Germany) at 37° C. for 4 minutes. Labeling was stopped by adding the same volume heat inactivated FCS (Invitrogen) and labeled cells were washed in TCM. Irradiation of target or feeder cells, if indicated, was performed at 33 Gy using a 1000 Elite gammacell (MDS Nordion, Ottawa, Canada). Stock solutions of sorafenib tosylate and sunitinib malate were prepared in DMSO (Merck, Darmstadt, Germany) and frozen aliquoted at −80° C. Mixed lymphocyte reactions were performed by coculturing 2×10^5 CFSE labeled effector plus 2×10^5 irradiated target cells as indicated per well of 96 well round bottom plates in 200 μl TCM in the presence of indicated concentrations of sorafenib, sunitinib or DMSO at 37° C. and 5% CO2 (day 1). On day 4, 100 μl supernatant was removed and 100 μl TCM supplemented with the original concentration of TKIs was added. […] Cells were washed, fixed in PFEA containing 1% formaldehyde (Fluka) and analyzed on a FACSCalibur (BD). […]
# [5] = tested on: OVA-001 specific CD8+ T-cells; type: in vivo, C57BL/6 mice; conditions: continuous treatment; for OVA-001 specific CD8+ T-cells, mean: OVA-001 immunized; for Immune response towards OVA-001 compared with vehicle treated controls (in words): both sorafenib dosages, high-dose (80 mg/kg bw) sunitinib, 80 mg/kg
# [6] = tested on: OVA-001 specific CD8+ T-cells; type: in vivo, C57BL/6 mice
smiles,measurement,setting,value
"CNC(=O)c1cc(Oc2ccc(NC(=O)Nc3ccc(Cl)c(C(F)(F)F)c3)cc2)ccn1 [Sorafenib, 4-(4-{3-[4-Chloro-3-(trifluoromethyl)phenyl]ureido}phenoxy)-N-methylpyrid-ine-2-carboxamide]",Number of CD4+ CD25+ Tregs among total CD4+ cells in PBMCs,[1],unchanged or even slightly elevated
same,Cell growth in culture,A498 and RCC068,prevented cell growth
same,% Expression relative to control: ADFP,A498 tumor cells,100%
same,% Expression relative to control: APOL1,A498 tumor cells,71%
same,% Expression relative to control: CCND1,A498 tumor cells,81%
same,% Expression relative to control: GUCY1A3,A498 tumor cells,44%
same,% Expression relative to control: HLA-A,A498 tumor cells,100%
same,% Expression relative to control: HLA-B,A498 tumor cells,87%
same,% Expression relative to control: HLA-C,A498 tumor cells,87%
same,% Expression relative to control: MET,A498 tumor cells,62%
same,% Expression relative to control: MMP7,A498 tumor cells,25%
same,% Expression relative to control: MUC1,A498 tumor cells,107%
same,% Expression relative to control: PSMB8,A498 tumor cells,87%
same,% Expression relative to control: PSMB9,A498 tumor cells,123%
same,% Expression relative to control: TAP1,A498 tumor cells,123%
same,"Priming and expansion of MLA-001 specific CD8+ T-cells (% tetramer+ among CD8+ lymphocytes, total number per well)",human CD8+ T-cells,no concentration-dependent influence; also recorded: not altered
same,Bioavailability / plasma levels at the used doses,[2],confirmed to reach plasma levels shown by others to be effective in tumor growth inhibition
same,Toxic side effects,[3],without any observed toxic side effects
same,Baseline proliferation of effector cells,[4],did not increase
same,"OVA-001 specific CD8+ T-cells, mean","[5]; 15 mg/kg bw, n=4",0.72%
same,"OVA-001 specific CD8+ T-cells, mean","[5]; 60 mg/kg bw, n=12",1.81%
same,Immune response towards OVA-001 compared with vehicle treated controls (in words),[5],reduced specific T-cell responses
same,Immune response towards OVA-001 compared with vehicle treated controls (in words),[5]; listed as sorafenib,reduced immune response
same,Reversibility of the immunosuppressive influence after discontinuation of treatment,"[6]; mouse, in vivo",rapidly reversed
same,Numbers of OVA-001-specific T-cells,"[6]; treatment stopped 48 h before first immunization, 80 mg/kg bw sunitinib, both sorafenib dosages, differences not significant",Reduced numbers
